Laboratory results published in patent US12667584B2, “Adenosine analog and its use in regulating the circadian clock” (NATIONAL INSTITUTE OF BIOLOGICAL SCIENCES, BEIJING, priority 2017, dated 2026).
Read-outs that look alike come from different tables or passages of the source.

System: Per2-Luc reporter U2OS cells (D15)
Assay: Circadian phase shift cell assay in D15 cells, 384 well plate, Tecan, with or without pentostatin
Format: cell-based, human
Conditions: for minimal effective concentration: read-out: Cell Assay; for With Pentostadin Cell Assay: pentostatin 5 μg/ml; for amplitude effect, Per2:luc signal versus control / period effect: under the concentration of 100 μM
[1] = Homo sapiens, U2OS, without pentostatin, concentration that shifts the circadian phase
[2] = concentration that shifts the circadian phase
[3] = without pentostatin, concentration that shifts the circadian phase

Row | Compound | minimal effective concentration [1] [µM] | With Pentostadin Cell Assay [2] [µM] | other results
1 | Nc1ncnc2c1ccn2[C@@H]1O[C@H](CO)C(O)C1O (stereo partly shown) [drawing 303] | 0.3 | 0.3 | –
2 | Nc1ncnc2c1c(F)cn2[C@H]1O[C@H](CO)[C@H](O)[C@H]1O | > 500 | 100 | –
3 | Nc1ncnc2c1ccn2[C@@H]1OC[C@@H](O)[C@H](O)[C@H]1O | 100 | – | –
4 | Nc1ncnc2c1c(I)cn2[C@@H]1O[C@H](CO)C(O)C1O (stereo partly shown) | – | – | minimal effective concentration (Homo sapiens, U2OS): 0.3 µM
5 | Nc1ncnc2c1ncn2[C@@H]1O[C@H](CO)CC1O (stereo partly shown) | 25 | 0.5 | –
6 | COc1nc(N)c2ncn([C@@H]3O[C@H](CO)C(O)C3O)c2n1 (stereo partly shown) | > 500 | 100 | –
7 | Nc1ncnc2c1ncn2[C@@H]1O[C@H](COC(=O)CCCC[C@@H]2SC[C@@H]3NC(=O)N[C@@H]32)CC1OC(=O)CCCC[C@@H]1SC[C@@H]2NC(=O)N[C@@H]21 (stereo partly shown) | > 500 | 12.5 | –
8 | [N-]=[N+]=NC[C@@H]1CC(O)[C@H](n2cnc3c(N)ncnc32)O1 (stereo partly shown) | 500 | 25 | –
9 | CNc1nc2c(=O)[nH]c(N)nc2n1[C@@H]1O[C@H](CO)C(O)C1O (stereo partly shown) | 100 | – | –
10 | CNC(=O)c1cnn(-c2nc(N)c3ncn([C@@H]4O[C@H](CO)C(O)C4O)c3n2)c1 (stereo partly shown) | 100 | – | –
11 | Nc1ncnc2c1ncn2[C@@H]1O[C@H](CO)C(O)C1O (stereo partly shown) | 12.5 | 0.5 | –
12 | Nc1ncnc2c1c(Br)cn2[C@@H]1O[C@H](CO)C[C@H]1O [drawing 349] | > 500 | 100 | –
13 | [2H]c1nc(N)c2nc([2H])n([C@@H]3O[C@H](CO)[C@H](O)[C@H]3O)c2n1 [NQZ-198] | – | – | amplitude effect, Per2:luc signal versus control: more than two fold of control
14 | Nc1ncnc2c1ccn2[C@@H]1O[C@H](CO)CC1O (stereo partly shown) | 200 | 25 | –
15 | Nc1nccc2c1ncn2[C@@H]1O[C@H](CO)[C@H](O)[C@H]1O | > 500 | 100 | –
16 | [2H]c1nc(N)c2nc([2H])n([C@@H]3O[C@H](CO)C[C@H]3O)c2n1 | 25 | 12.5 | –
17 | Nc1ncnc2c1ncn2[C@H]1CC[C@@H](CO)O1 | 200 | – | –
18 | Nc1nccc2c1ncn2[C@@H]1O[C@H](CO)C(O)C1O (stereo partly shown) | 50 | 50 | –
19 | Nc1nc(F)nc2c1ncn2[C@@H]1O[C@H](CO)C(O)C1O (stereo partly shown) | 50 | – | –
20 | Nc1nc(N)c2ncn([C@@H]3O[C@H](CO)C(O)C3O)c2n1 (stereo partly shown) | > 500 | 100 | –
21 | Nc1ncnc2c1c(F)cn2[C@@H]1O[C@H](CO)[C@H](O)[C@H]1O | > 500 | 100 | –
22 | OC[C@H]1O[C@@H](n2cnc3cc(Cl)c(Cl)cc32)C(O)C1O (stereo partly shown) [drawing 284] | – | – | minimal effective concentration [3]: 10 µM

Row | Compound | minimal effective concentration [1] [µM] | With Pentostadin Cell Assay [2] [µM] | other results
23 | CC1(CCC(=O)O[C@@H]2[C@@H](O)[C@H](n3cnc4c(N)ncnc43)O[C@@H]2COC(=O)CCCC(=O)NCCCOCCOCCOCCCNC(=O)CCCC[C@H]2SC[C@H]3NC(=O)N[C@H]32)N=N1 | > 500 | 100 | –
24 | Nc1ncnc2c1c(Br)cn2[C@H]1O[C@H](CO)[C@H](O)[C@H]1O | > 500 | 50 | –
25 | Nc1cc(Cl)nc2c1ncn2[C@@H]1O[C@H](CO)C(O)C1O (stereo partly shown) | > 500 | 100 | –
26 | Nc1nc(F)nc2c1nc(F)n2[C@@H]1O[C@H](CO)[C@H](O)[C@H]1O | > 500 | 200 | –
27 | CC1(CCC(=O)O[C@@H]2[C@H](O)[C@@H](COC(=O)CCCC(=O)NCCCOCCOCCOCCCNC(=O)CCCC[C@H]3SC[C@H]4NC(=O)N[C@H]43)O[C@H]2n2cnc3c(N)ncnc32)N=N1 | > 500 | 100 | –
28 | Nc1ncnc2c1ncn2[C@@H]1O[C@H](COP(=O)(O)OP(=O)(O)OP(=O)(O)O)CC1O (stereo partly shown) | 100 | – | –
29 | Nc1ncnc2c1ccn2[C@@H]1O[C@H](CO)C(O)C1O (stereo partly shown) [drawing 318] | – | 25 | –
30 | Nc1ncnc2c1ncn2[C@@H]1O[C@@H]2COP(=O)(O)OC2C1O (stereo partly shown) | – | – | minimal effective concentration (Homo sapiens, U2OS): 200 µM
31 | OC[C@H]1O[C@@H](n2cnc3c(NCc4ccccc4)ncnc32)C(O)C1O (stereo partly shown) | 10 | 10 | –
32 | OC[C@H]1O[C@@H](n2cnc3cc(Cl)c(Cl)cc32)C(O)C1O (stereo partly shown) [drawing 289] | 10 | 10 | –
33 | COc1cc2c(N)ncnc2n1[C@@H]1O[C@H](CO)[C@H](O)[C@H]1O | > 500 | 100 | –
34 | Nc1ncnc2c1ncn2[C@@H]1O[C@H](COC(=O)CCCC[C@@H]2SC[C@@H]3NC(=O)N[C@@H]32)C(O)C1O (stereo partly shown) | > 500 | 2 | –
35 | OC[C@@H]1CC(O)[C@H](n2cnc3cc(Cl)c(Cl)cc32)O1 (stereo partly shown) | 10 | – | –
36 | C=C[C@@H]1CC(O)[C@H](n2cnc3c(N)ncnc32)O1 (stereo partly shown) | 200 | 25 | –
37 | Nc1ncnc2c1ncn2[C@@H]1O[C@H](COC(=O)CCCC[C@@H]2SC[C@@H]3NC(=O)N[C@@H]32)C(O)C1OC(=O)CCCC[C@@H]1SC[C@@H]2NC(=O)N[C@@H]21 (stereo partly shown) | > 500 | 25 | –
38 | Nc1ncnc2c1ncn2[C@@H]1O[C@H](CO)[C@H](OC(=O)CCCC[C@@H]2SC[C@@H]3NC(=O)N[C@@H]32)[C@H]1O | > 500 | 25 | –
39 | O=C(CCCC[C@@H]1SC[C@@H]2NC(=O)N[C@@H]21)Nc1ncnc2c1ncn2[C@@H]1O[C@H](CO)CC1O (stereo partly shown) [drawing 292] | – | 25 | minimal effective concentration [3]: >500 µM
40 | Nc1ncnc2c1c(Br)cn2[C@@H]1O[C@H](CO)[C@H](O)[C@H]1O [drawing 333] | > 500 | 100 | –
41 | Nc1ncnc2c1c(Br)c(Br)n2[C@@H]1O[C@H](CO)C[C@H]1O | > 500 | 100 | –
42 | Nc1ncnc2c1ncn2[C@@H]1O[C@H](COC(=O)CCCC[C@@H]2SC[C@@H]3NC(=O)N[C@@H]32)CC1O (stereo partly shown) [drawing 316] | – | – | minimal effective concentration [3]: 200 µM
43 | OC[C@H]1O[C@@H](n2cnc3c(Cl)cc(Cl)nc32)C(O)C1O (stereo partly shown) | 100 | – | –
44 | OC[C@H]1O[C@@H](n2cnc3c(NC4CC4)ncnc32)C(O)C1O (stereo partly shown) | 100 | – | –

Row | Compound | minimal effective concentration [1] [µM] | With Pentostadin Cell Assay [2] [µM] | other results
45 | Nc1ncnc2c1cc(Br)n2[C@@H]1O[C@H](CO)[C@H](O)[C@H]1O | > 500 | 100 | –
46 | Nc1ncnc2c1c(Br)c(Br)n2[C@@H]1O[C@H](CO)[C@H](O)[C@H]1O | > 500 | 100 | –
47 | Nc1ncnc2c1cc(Br)n2[C@@H]1O[C@H](CO)C[C@H]1O | > 500 | 100 | –
48 | Nc1nc2c([nH]c(=S)n2[C@@H]2O[C@H](CO)C(O)C2O)c(=O)[nH]1 (stereo partly shown) | 100 | – | –
49 | C#CC(O)C1O[C@@H](n2cnc3c(N)ncnc32)[C@H](O)[C@H]1O (stereo partly shown) | > 500 | 100 | –
50 | CCCCCCCC(=O)Nc1ncnc2c1ncn2[C@@H]1O[C@H](CO)[C@H](O)[C@H]1O [NQZ-163] | – | – | amplitude effect, Per2:luc signal versus control: more than two fold of control
51 | Nc1ncnc2c1ncn2[C@@H]1O[C@H](COP(=O)(O)O)CC1O (stereo partly shown) | 100 | – | –
52 | Nc1ncnc2c1ncn2[C@@H]1O[C@H](CO)C2OC21 (stereo partly shown) | 3 | – | –
53 | Nc1ncnc2c1ncn2[C@@H]1O[C@H](COC(=O)CCCC[C@@H]2SC[C@@H]3NC(=O)N[C@@H]32)CC1O (stereo partly shown) [drawing 290] | – | 6 | minimal effective concentration [3]: >500 µM
54 | Nc1ncnc2c1ncn2[C@@H]1O[C@H](CO)C(O)C1OC(=O)CCCC[C@@H]1SC[C@@H]2NC(=O)N[C@@H]21 (stereo partly shown) | > 500 | 2 | –
55 | Nc1nc(Br)nc2c1ncn2[C@@H]1O[C@H](CO)C[C@H]1O | > 500 | 100 | –
56 | OC[C@H]1O[C@@H](n2c(F)nc3c(F)nc(F)nc32)[C@H](O)[C@H]1O [NQZ-195] | – | – | period effect: elongation period effect
57 | Nc1ncnc2c1c(Br)cn2[C@H]1O[C@H](CO)C[C@H]1O | > 500 | 200 | –
58 | Nc1ncnc2c1nc(Br)n2[C@@H]1O[C@H](CO)[C@H](O)[C@H]1O | > 500 | 100 | –
59 | OC[C@H]1O[C@@H](n2cnc3c(Nc4cccc(O)c4)ncnc32)C(O)C1O (stereo partly shown) | 200 | – | –
60 | Nc1ncnc2c1nc(Br)n2[C@@H]1O[C@H](CO)C[C@H]1O | > 500 | 100 | –
61 | O=C1N[C@H]2[C@H](CS[C@H]2CCCCC(=O)OC[C@H]2O[C@@H](n3cnc4cc(Cl)c(Cl)cc43)C(O)C2O)N1 (stereo partly shown) | 40 | – | –
62 | Cc1cccc(Cc2nn(C(C)(C)C)c3ncnc(N)c23)c1 | 10 | – | –
63 | Nc1ncnc2c1ncn2[C@@H]1O[C@H](CO)[C@H](O)[C@H]1O [NQZ-007, 9-(β-D-xylofuranosyl)-adenine] | – | – | concentration of eliciting 12 h phase shift (potency) (pentostatin containing medium (5 μg/ml)): 0.2 µM; concentration of eliciting 12 h phase shift (potency) (without pentostatin): 25 µM
64 | O=C(CCCC[C@@H]1SC[C@@H]2NC(=O)N[C@@H]21)Nc1ncnc2c1ncn2[C@@H]1O[C@H](CO)CC1O (stereo partly shown) [drawing 315] | – | – | minimal effective concentration [3]: 200 µM
65 | Nc1ncnc2c1c(Br)cn2[C@@H]1O[C@H](CO)[C@H](O)[C@H]1O [NQZ-168] | – | – | period effect: elongation period effect
66 | Nc1ncnc2c1c(Br)cn2[C@@H]1O[C@H](CO)C[C@H]1O [NQZ-194] | – | – | amplitude effect, Per2:luc signal versus control: more than two fold of control
